# Measurements: patent US11377632B2, “Production method for bacterial cells” (IDEMITSU KOSAN CO., LTD., priority 2017, dated 2022)
# Test system: Bacillus subtilis ITB 105 strain (NITE BP-01727)
# Test: Three-stage liquid culture with streptomycin added; colony count (CFU) and abnormal colony morphology on agar
# Format: cell-based
# Conditions: for Appearance (%) of abnormal colonies / CFU / Number of abnormal colonies / Number of normal colonies: third stage, 30 hour
# Protocol: Using a 500 mL Erlenmeyer flask (with a baffle), 100 mL each of liquid medium containing the components of the medium listed in Table 1 was prepared, and then autoclave sterilization was performed. In order to avoid the Maillard reaction, glucose was separately sterilized and mixed aseptically.
# The test sections were set as described in Table 2. According to the conditions for each test section, an aqueous solution of filter-sterilized streptomycin was aseptically added to the medium.
# One platinum loop was taken from a colony of Bacillus subtilis ITB 105 strain (NITE BP-01727) grown on a common agar medium and inoculated, and then shake culture was performed at 30° C. and 150 rpm (first stage). Eighteen hours later, 1 mL of each culture solution was aliquoted and transferred to a fresh medium, and then shaking culture was performed in the same manner (second stage). After 24 hours, 1 mL of each culture solution was aliquoted and then transferred to a fresh medium, and then shaking culture was performed in the same manner (third stage). The third-stage culture solution was sampled after 30 hours.
# The resulting culture solutions were each diluted 1×10^7 folds with sterile water, and 100 μL of the diluted solution was applied to a common agar medium and then cells were cultured overnight at 37° C. The number of colonies that had appeared was determined to calculate CFU. Colonies that had appeared and clearly differed in colony morphology compared with the parent strain on the basis of the criteria in Table 3 were determined as abnormal colonies and the number of the abnormal appearing colonies was determined and then the proportion thereof in the total number of colonies was calculated. As a result, in the three-stage culture, abnormal appearing colonies accounted for about 5% when no antibiotic was added.
# [1] = Test section No. 2: streptomycin 5 ppm in first and second stage, none in third
# [2] = Test section No. 3: streptomycin 10 ppm in first and second stage, none in third
# [3] = Test section No. 4: streptomycin 15 ppm in first and second stage, none in third
# [4] = Test section No. 5: streptomycin 20 ppm in first and second stage, none in third
# [5] = Test section No. 6: streptomycin 30 ppm in first and second stage, none in third
# [6] = Test section No. 7: streptomycin 30 ppm in first, second and third stage
# [7] = streptomycin added in all of the first, second and third stages
smiles,measurement,setting,value
"[H]/N=C(/N)N[C@H]1[C@H](O)[C@@H](O)[C@H](O[C@@H]2O[C@@H](C)[C@](O)(C=O)[C@H]2O[C@@H]2O[C@@H](CO)[C@H](O)[C@@H](O)[C@@H]2NC)[C@@H](N/C(N)=N\[H])[C@@H]1O [Streptomycin, streptomycin]",Appearance (%) of abnormal colonies,[1],0.0%
same,CFU,[1],8.8e+09 mL⁻¹
same,Number of abnormal colonies,[1],0
same,Number of normal colonies,[1],88
same,Appearance (%) of abnormal colonies,[2],0.0%
same,CFU,[2],1.09e+10 mL⁻¹
same,Number of abnormal colonies,[2],0
same,Number of normal colonies,[2],109
same,Appearance (%) of abnormal colonies,[3],0.0%
same,CFU,[3],7e+09 mL⁻¹
same,Number of abnormal colonies,[3],0
same,Number of normal colonies,[3],70
same,Appearance (%) of abnormal colonies,[4],0.0%
same,CFU,[4],8.2e+09 mL⁻¹
same,Number of abnormal colonies,[4],0
same,Number of normal colonies,[4],82
same,Appearance (%) of abnormal colonies,[5],0.0%
same,CFU,[5],6.3e+09 mL⁻¹
same,Number of abnormal colonies,[5],0
same,Number of normal colonies,[5],63
same,Appearance (%) of abnormal colonies,[6],0.0%
same,CFU,[6],4.9e+09 mL⁻¹
same,Number of abnormal colonies,[6],0
same,Number of normal colonies,[6],49
same,Appearance of abnormal colonies,[7],no abnormal colony appeared
same,Number of appearing colonies and number of normal appearing colonies,[7],low
same,Productivity of bacterial cells,"streptomycin added in all of the first, second and third stages, compared with Test section Nos. 2 to 6",lower than those of Test section Nos. 2 to 6
same,Appearance of abnormal colonies,"streptomycin added in the first and second stages, none in the third stage",no appearance of abnormal colonies was observed
